Reference: paper PMC3602187, “From Design to Screening: A New Antimicrobial Peptide Discovery Pipeline” (PLoS ONE, 2013)
Converted amounts (≈) assume the structure as drawn. Where a SMILES comes first, the peptide text is derived from it.

What follows are compounds tested on Listeria innocua 33090 (assay: colony overlay assay of peptide-secreting E. coli clones (library screening and re-test)). Details: library screening; selected colonies pooled by zone size; peptides identified by 454 sequencing, full-length sequences with minimum 20 reads.
Type: cell-based
Set-up: key: higher activity group (H); equal activity group (E); lower activity group (L)
Method in brief: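 Pln-423 mutant library expressed periplasmically in leaky E. coli JE5505 (pFLAG-CTS); colonies grown 24 h at 37°C, then overlaid with TSB soft agar containing 1 mM IPTG and L. innocua ATCC 33090 (OD600 = 0.03) and incubated overnight at 30°C. Activity scored by inhibition-zone size versus wild-type Pln-423; hits re-tested after 4 h regrowth.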

Row | Compound | activity group by size of inhibition zone compared to wild-type Pln-423
1 | CC(C)C[C@H](NC(=O)[C@H](Cc1c[nH]cn1)NC(=O)[C@H](CO)NC(=O)[C@@H](NC(=O)[C@H](CO)NC(=O)[C@H](CS)NC(=O)[C@H](CCC(=O)O)NC(=O)[C@H](Cc1ccccc1)NC(=O)[C@H](C)NC(=O)[C@H](CCC(N)=O)NC(=O)CNC(=O)[C@H](Cc1c[nH]c2ccccc12)NC(=O)[C@H](CC(N)=O)NC(=O)[C@@H](NC(=O)[C@H](CO)NC(=O)[C@H](CS)NC(=O)[C@H](CO)NC(=O)[C@H](Cc1c[nH]cn1)NC(=O)[C@H](CCCCN)NC(=O)CNC(=O)[C@H](CS)NC(=O)[C@@H](NC(=O)[C@@H](NC(=O)CNC(=O)[C@H](CC(N)=O)NC(=O)CNC(=O)[C@H](Cc1ccc(O)cc1)NC(=O)[C@H](Cc1ccc(O)cc1)NC(=O)[C@@H](N)CCCCN)C(C)C)[C@@H](C)O)C(C)C)C(C)C)C(=O)N[C@@H](C)C(=O)N[C@@H](CC(N)=O)C(=O)N[C@@H](Cc1ccccc1)C(=O)NCC(=O)N[C@@H](Cc1c[nH]cn1)C(=O)NCC(=O)N[C@@H](CCCCN)C(=O)N[C@@H](CS)C(=O)O [PLN-S23E] (H-KYYGNGVTCGKHSCSVNWGQAFECSVSHLANFGHGKC-OH; N-terminus and C-terminus assumed) | H and L
2 | KYYGNGVTCGKHSCSVNWGTAFSCSISHLANFGHGKC* [Pep-2_1588] | E
3 | KYYGNGVTCGKHSCSVNWGTAFSCSVSYLANFGHGKC* [GROUP L-UM-14] | L
4 | KYYGNGVTCGKHSCSVNWGVAFSCSVSHLANFGHGWC* [Pep-2_1758] | L
5 | KYYGNGVTCGKHSCSVNWGVAFSCSVSHLANFGHGYC* [Pep-2_1755] | L
6 | KYYGNGVTCGKHSCSVNWGWAFSCSVSHLANFGHGKC* [Pep-1_18] | L
7 | KYYGNGVTCGKHSCSVNWNQAFYCSVSHLANFGHGKC* [Pep-2_921] | L
8 | KYYGNGVTCGKHSCSVNYGQAFACSVSHLANFGHGKC* [Pep-2_257] | L
9 | KYYGNGVTCGKHSCSVNYGQAFSCSVSHLANFGHGAC* [Pep-2_335] | E
10 | KYYGNGVTCGKHSCSVNYGQAFSCSVWHLANFGHGKC* [Pep-2_282] | E
11 | KYYGNGVTCGKHSCSVNYGQLFSCSVSHLANFGHGKC* [GROUP L-UM-22] | L
12 | KYYGNGVTCGNYSCSVNWGQAFSCSVVHLAEFGHGKC* [GROUP L-UM-10] | L

The compounds below were run on Listeria innocua 33090 (assay: MIC determination / agar spot assay of synthetic peptides). Details: synthetic peptide; 5 µl of two-fold serial dilutions spotted on TSB soft agar (1.2%) with 5×10^5 cfu/ml; 1 h room temperature, then 18 h at 37°C; lowest concentration with visible inhibition zone; triplicate.
Type: cell-based
Procedure: Synthetic samples of wild-type Pln-423, two variants Pln-S23E and Pln-H28R/H34E from this study (Pln-4 and Pln-7 on Fig. 2), and another high-activity variant Pln-S27D/K36N (discovered during a pilot study, data not shown) were tested on agar plates at varying concentrations.
MICs were determined as previously described, [35]. Synthetic peptides were obtained from Peptide 2.0, Inc. (Chantilly, VA) and dissolved in 0.1% acetic acid/water solution at the final concentration of 2.5 mg/ml. Listeria innocua 33090 was grown in TSB until the turbidity of the culture match that of McFarland standard 0.5 (∼OD600 = 0.11) and diluted to final concentration of 5×10^5 cfu/ml in 20 ml TSB soft agar (1.2%) per plate. Two-fold serial dilutions (starting at 128 µg/ml) for each peptide was carried out in ultra-pure deionized water and 5 µl aliquots of each dilution were spotted on TSB plates. After the plates were incubated for 1 h at room temperature, they were placed at 37°C for overnight incubation. This experiment was performed in triplicate and the MIC was calculated as the lowest peptide concentration that formed a visible growth inhibition zone.

Row | Compound | MIC
13 | CC(C)C[C@H](NC(=O)[C@H](Cc1c[nH]cn1)NC(=O)[C@H](CO)NC(=O)[C@@H](NC(=O)[C@H](CO)NC(=O)[C@H](CS)NC(=O)[C@H](CCC(=O)O)NC(=O)[C@H](Cc1ccccc1)NC(=O)[C@H](C)NC(=O)[C@H](CCC(N)=O)NC(=O)CNC(=O)[C@H](Cc1c[nH]c2ccccc12)NC(=O)[C@H](CC(N)=O)NC(=O)[C@@H](NC(=O)[C@H](CO)NC(=O)[C@H](CS)NC(=O)[C@H](CO)NC(=O)[C@H](Cc1c[nH]cn1)NC(=O)[C@H](CCCCN)NC(=O)CNC(=O)[C@H](CS)NC(=O)[C@@H](NC(=O)[C@@H](NC(=O)CNC(=O)[C@H](CC(N)=O)NC(=O)CNC(=O)[C@H](Cc1ccc(O)cc1)NC(=O)[C@H](Cc1ccc(O)cc1)NC(=O)[C@@H](N)CCCCN)C(C)C)[C@@H](C)O)C(C)C)C(C)C)C(=O)N[C@@H](C)C(=O)N[C@@H](CC(N)=O)C(=O)N[C@@H](Cc1ccccc1)C(=O)NCC(=O)N[C@@H](Cc1c[nH]cn1)C(=O)NCC(=O)N[C@@H](CCCCN)C(=O)N[C@@H](CS)C(=O)O [PLN-S23E] (H-KYYGNGVTCGKHSCSVNWGQAFECSVSHLANFGHGKC-OH; N-terminus and C-terminus assumed) | 1 µM (≈ 3.98 µg/mL)

Same assay, conditions: synthetic peptides

Row | Compound | MIC fold lower than wild-type Pln-423 | MIC fold higher compared to Pln-WT
14 | CC(C)C[C@H](NC(=O)[C@H](CCCNC(=N)N)NC(=O)[C@H](CO)NC(=O)[C@@H](NC(=O)[C@H](CO)NC(=O)[C@H](CS)NC(=O)[C@H](CO)NC(=O)[C@H](Cc1ccccc1)NC(=O)[C@H](C)NC(=O)[C@H](CCC(N)=O)NC(=O)CNC(=O)[C@H](Cc1c[nH]c2ccccc12)NC(=O)[C@H](CC(N)=O)NC(=O)[C@@H](NC(=O)[C@H](CO)NC(=O)[C@H](CS)NC(=O)[C@H](CO)NC(=O)[C@H](Cc1c[nH]cn1)NC(=O)[C@H](CCCCN)NC(=O)CNC(=O)[C@H](CS)NC(=O)[C@@H](NC(=O)[C@@H](NC(=O)CNC(=O)[C@H](CC(N)=O)NC(=O)CNC(=O)[C@H](Cc1ccc(O)cc1)NC(=O)[C@H](Cc1ccc(O)cc1)NC(=O)[C@@H](N)CCCCN)C(C)C)[C@@H](C)O)C(C)C)C(C)C)C(=O)N[C@@H](C)C(=O)N[C@@H](CC(N)=O)C(=O)N[C@@H](Cc1ccccc1)C(=O)NCC(=O)N[C@@H](CCC(=O)O)C(=O)NCC(=O)N[C@@H](CCCCN)C(=O)N[C@@H](CS)C(=O)O [PLN-H28R/H34E] (H-KYYGNGVTCGKHSCSVNWGQAFSCSVSRLANFGEGKC-OH; N-terminus and C-terminus assumed) | 2 fold | –
15 | CC(C)C[C@H](NC(=O)[C@H](Cc1c[nH]cn1)NC(=O)[C@H](CO)NC(=O)[C@@H](NC(=O)[C@H](CO)NC(=O)[C@H](CS)NC(=O)[C@H](CCC(=O)O)NC(=O)[C@H](Cc1ccccc1)NC(=O)[C@H](C)NC(=O)[C@H](CCC(N)=O)NC(=O)CNC(=O)[C@H](Cc1c[nH]c2ccccc12)NC(=O)[C@H](CC(N)=O)NC(=O)[C@@H](NC(=O)[C@H](CO)NC(=O)[C@H](CS)NC(=O)[C@H](CO)NC(=O)[C@H](Cc1c[nH]cn1)NC(=O)[C@H](CCCCN)NC(=O)CNC(=O)[C@H](CS)NC(=O)[C@@H](NC(=O)[C@@H](NC(=O)CNC(=O)[C@H](CC(N)=O)NC(=O)CNC(=O)[C@H](Cc1ccc(O)cc1)NC(=O)[C@H](Cc1ccc(O)cc1)NC(=O)[C@@H](N)CCCCN)C(C)C)[C@@H](C)O)C(C)C)C(C)C)C(=O)N[C@@H](C)C(=O)N[C@@H](CC(N)=O)C(=O)N[C@@H](Cc1ccccc1)C(=O)NCC(=O)N[C@@H](Cc1c[nH]cn1)C(=O)NCC(=O)N[C@@H](CCCCN)C(=O)N[C@@H](CS)C(=O)O [PLN-S23E] (H-KYYGNGVTCGKHSCSVNWGQAFECSVSHLANFGHGKC-OH; N-terminus and C-terminus assumed) | – | 13 fold
16 | CC(C)C[C@H](NC(=O)[C@H](Cc1c[nH]cn1)NC(=O)[C@H](CC(=O)O)NC(=O)[C@@H](NC(=O)[C@H](CO)NC(=O)[C@H](CS)NC(=O)[C@H](CO)NC(=O)[C@H](Cc1ccccc1)NC(=O)[C@H](C)NC(=O)[C@H](CCC(N)=O)NC(=O)CNC(=O)[C@H](Cc1c[nH]c2ccccc12)NC(=O)[C@H](CC(N)=O)NC(=O)[C@@H](NC(=O)[C@H](CO)NC(=O)[C@H](CS)NC(=O)[C@H](CO)NC(=O)[C@H](Cc1c[nH]cn1)NC(=O)[C@H](CCCCN)NC(=O)CNC(=O)[C@H](CS)NC(=O)[C@@H](NC(=O)[C@@H](NC(=O)CNC(=O)[C@H](CC(N)=O)NC(=O)CNC(=O)[C@H](Cc1ccc(O)cc1)NC(=O)[C@H](Cc1ccc(O)cc1)NC(=O)[C@@H](N)CCCCN)C(C)C)[C@@H](C)O)C(C)C)C(C)C)C(=O)N[C@@H](C)C(=O)N[C@@H](CC(N)=O)C(=O)N[C@@H](Cc1ccccc1)C(=O)NCC(=O)N[C@@H](Cc1c[nH]cn1)C(=O)NCC(=O)N[C@@H](CC(N)=O)C(=O)N[C@@H](CS)C(=O)O [PLN-S27D/K36N] (H-KYYGNGVTCGKHSCSVNWGQAFSCSVDHLANFGHGNC-OH; N-terminus and C-terminus assumed) | 2 fold | –
